Here are results for 1 compound from patent US8729053B2, “Nuclear factor kappa B pathway inhibitor composition and use of same” (The United States of America, as represented by the …, priority 2008, dated 2014).

Where a name gives a salt, the structure may show the parent alone.

In one test the test system is JB6 cells (clone 41). Kind of test: JB6 soft agar cell transformation assay. To be noted: for Transformation response to TPA: 10 days, TPA 10 ng/ml. Type of test: cell-based, mouse. Here is the method: JB6 cells (clone 41) were used to assess the inhibitory activity of compound I using CytoSelect 96-well Cell Transformation Assay (Cell Biolabs, Huissen, Netherlands) as Soft Agar Assay according to manufacturer's instructions. Cells were incubated for 10 days in 0.4% agar medium over 0.6% agar containing TPA or TPA with compound I or DMSO as a control. To measure anchorage-independent growth, agar-layers were dissolved and lysed. 10 μl of the lysed solutions of each well were mixed with CyQuant and the fluorescence read by iQ5 with a FAM filter of 485/520 nm. As an alternative analysis, cell dose curves of JB6 cells were quantified by the End point using CyQuant to indicate relative anchorage-independent colony number.
In order to evaluate the potential therapeutic activity of the compound, tests for the biological activity of compound I were performed. The compound is non-toxic to MCF-7, T47D, and MDA-MB-231 breast cancer cells as estimated by XTT assay at 10 μM. To determine the effects of compound I on invasion by breast cancer cell lines, a matrigel invasion assay was used. The levels of phosphorylated IκBα were confirmed in TPA treated ER-positive (MCF-7 and T47D) and ER-negative (MDA-MB-231) breast cancer cell lines and compared the levels to those after pretreatment with compound I. Although induced levels of phosphorylated IκBα varied with the cell line, IκBα phosphorylation was eliminated by compound I treatment in all three breast cancer cell lines. Compound I also produced no effect on the estrogen receptor activity in the ER-positive breast cancer cells using ERE promoter luciferase reporter assay. Invasion capacity of breast cancer cells was increased by TPA stimulation compared to DMSO treated vehicle control. […] Following anchorage-independent colony induction in TPA-treated cells without or with compound I, colonies were lysed and measured with CyQuant GR Dye to detect DNA by fluorescence plate reader as a measure of colony count. Total transformed colony numbers were calculated from RFU and cell dose curve of JB6 cells. […]

In the next test the test system is COX-2 promoter. In words: COX-2 promoter luciferase reporter assay in HEK293 cells. The test is classed as cell-based, human. To be noted: TPA 10 ng/ml 18 hours. Here is the method: All expression plasmids were transiently transfected into HEK293 cells in a 96-well plate (0.1 μg/well) by using Effectene transfection reagent (Qiagen, Valencia, Calif.) according to the manufacturer's manual. HEK293 cells were maintained in Dulbecco's modified Eagle medium (Sigma, St. Louis, Mo.) supplemented with 10% fetal bovine serum (Atlanta Biologicals, Lawrenceville, Ga.) and incubated at 37° C. in a 5% CO2 incubator. After 24 hrs incubation, the medium was changed to DMEM with 0.2% FBS, and the transfectants were exposed to various concentrations of compound I and TPA (10 ng/ml). Cells were lysed with passive lysis buffer and the luciferase assay was performed using the Firefly-Luciferase reporter assay system (Promega, Madison, Wis.) and MLX Luminometer (Dynex Technology, Chantilly, Va.).
Three different luciferase reporter genes, AP-1 reporter containing four times TRE consensus originated from GCN4 and SRE reporter purchased from Stratagene (La Jolla, Calif.) respectively are as described previously (Suzukawa et al., Environ. Health Perspect., 2002, 110, 865-70). […]
Inhibition of NFκB transactivation would be expected to result in suppressed expression of genes whose transcription depends on NFκB. Quantitative RT-PCR was used to measure endogenous levels of IL-6 mRNA, transcribed from a gene whose transcription depends on NFκB but not AP-1. […]
A general note: In a reporter assay the amount or activity of a reporter protein is the signal.

As to `Cc1cc(N)ccc1N=Nc1ccc(S(=O)(=O)CCOS(=O)(=O)O)cc1` [compound I, 2-(4-((4-amino-2-methylphenyl)diazenyl)phenylsulfonyl)ethyl hydrogen sulfate], the “Tumor promoter induced transformation of JB6 cells” value in the test with JB6 cells (clone 41) is “inhibits”. Also, the “Transformation response to TPA” value in the test with JB6 cells (clone 41) (1.1 μM) was “decreased”; with JB6 cells (clone 41) (17.0 μM to 2.1 μM), “repressed to below vehicle control level”. The “COX-2 luciferase activity” value in the test with COX-2 promoter was “dose-dependent inhibition”.
